US5714509A, “Inhibitors of bacterial sialidase and methods of making and using the same” (The University of Alabama, priority 1995, dated 1998)
pIC50, pKi: −log10 of the molar value.

Experiments:
S. typhimurium sialidase [1] = settings: substrate of S. typhimurium sialidase; cited from earlier work
S. typhimurium sialidase [2] = settings: cited from earlier work
[3] = system: influenza virus sialidase; settings: cited from earlier work; for pIC50: read-out: IC50 for influenza virus sialidase inhibition
[4] = molecular target: T1, bacterial sialidase (Micromonospora viridifaciens) (Micromonospora viridifaciens, UniProt Q02834); assay: Inhibition of bacterial sialidase (Micromonospora viridifaciens), fluorescence assay with MUN; type: biochemical; settings: 10 mM inhibitor, 0.1 mM MUN, pH 6.0, 37° C., 15 minutes
T1 sequence (Q02834 38-647): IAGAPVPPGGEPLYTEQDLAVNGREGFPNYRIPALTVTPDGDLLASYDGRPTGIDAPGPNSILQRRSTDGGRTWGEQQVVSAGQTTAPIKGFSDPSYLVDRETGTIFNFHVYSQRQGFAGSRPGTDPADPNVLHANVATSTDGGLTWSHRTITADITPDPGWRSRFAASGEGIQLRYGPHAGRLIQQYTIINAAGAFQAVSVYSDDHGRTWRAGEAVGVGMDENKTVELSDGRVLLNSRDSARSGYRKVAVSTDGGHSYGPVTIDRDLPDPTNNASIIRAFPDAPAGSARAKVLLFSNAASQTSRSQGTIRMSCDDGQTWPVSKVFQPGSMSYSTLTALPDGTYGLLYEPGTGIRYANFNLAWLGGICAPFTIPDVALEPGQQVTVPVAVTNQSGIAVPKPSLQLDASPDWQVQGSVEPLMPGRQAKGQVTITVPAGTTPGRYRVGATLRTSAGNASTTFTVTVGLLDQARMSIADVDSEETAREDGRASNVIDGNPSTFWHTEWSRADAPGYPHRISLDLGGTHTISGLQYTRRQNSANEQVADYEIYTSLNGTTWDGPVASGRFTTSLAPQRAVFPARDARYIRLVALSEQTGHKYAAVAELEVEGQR

## CC(=O)NC1C(O)CC(Oc2ccc3c(C)cc(=O)oc3c2)(C(=O)O)OC1C(O)C(O)CO [MUN, 4-methylumbelliferyl-a-D-N-acetylneuraminic acid]
S. typhimurium sialidase [1]
  Km: 250 µM
  turnover number: 2,700 sec^-1

## CC(=O)N[C@H]1[C@H]([C@H](O)[C@H](O)CO)OC(C(=O)O)=C[C@@H]1O [Neu5Ac2en]
S. typhimurium sialidase [2]
  pKi: 3.42
[3]
  pIC50: ~2.00

## CC(=O)Nc1c(O)cc(C(=O)O)cc1[N+](=O)[O-] [HNBA, 4-acetylamino-3-hydroxyl-5-nitro-benzoic acid]
[4]
  inhibition of bacterial sialidase (in words): inhibited bacterial sialidase with efficiencies similar to Neu5Ac2en
[3]; both type A and B
  inhibition of type A and B influenza virus sialidase (in words): potent inhibitors
[3]
  inhibition of influenza virus sialidase (in words): millimolar
  pIC50: ~2.00

## CC(=O)N[C@H]1[C@H]([C@H](O)[C@H](O)CO)OC(C(=O)O)=C[C@@H]1N=C(N)N [4-guanidino-Neu5Ac2en]
[3]; influenza virus versus bacterial sialidases
  inhibition selectivity for influenza virus sialidase versus bacterial sialidases: inhibition selectivity of 4-guanidino-Neu5Ac2en for influenza virus sialidase versus bacterial sialidases

## CC(=O)N[C@H]1[C@H]([C@H](O)[C@H](O)CO)OC(O)(C(=O)O)C[C@@H]1O (stereo partly shown) [Neu5Ac]
S. typhimurium sialidase [2]; high levels, compared to influenza virus sialidase
  inhibition by high levels of the cleavage product: do not inhibit the bacterial sialidase
